Results reported in patent US12616646B2, “Use of rochelle salt” (SKYLAB AG, priority 2021, dated 2026).

Assays:
[1] = Antioxidant activity in relation to ascorbic acid by the ferricyanide spectrophotometric method; conditions: 2% solution in distilled water
Source text: Materials and methods. The test item was 2% seignette salt solution in distilled water.

[2] = FtCl (Ft Cleaning) 300 cleaning and whitening ability test on Martindale tester, Example 1; conditions: Δ by 4 cycles values
Method: To determine resistance of dental enamel to attrition on a Martindale tester (hereinafter—Tester) the sets were analyzed—samples of solutions of piezoelectric materials and tooth brushes based on the following indicator: • FtCl (Ft Cleaning) 300, characterizes the cleaning ability of a solution (paste) by making 300 cleaning movements (mah) in a suspension of piezoelectric materials. The indicator is used as an analog of PCR (Pellicle Cleaning Ration) and it enables quantitative assessment of the cleaning and whitening action of a solution (paste) in case of a single-time cleaning. […]
Determination of FtCl300 for a solution of piezoelectric materials: • path: ∞L=25 mm, • rate 150 mah/min, • impact—300 mah, • brush load 325 g, • minimum quantity of parallel determinations—one per each paste with a test brush, • a test tooth brush: tooth brush PROFESSIONAL COMPLETE of medium hardness, • use one brush head for not more than 3-4 cycles, i.e. for 900-1200 mah, owing to wear out of bristles; then replace the brush head with a new one. […]
FtCl300 values were calculated by the formula: FtCl300=100*(Lcl−Lcol)/(Lin−Lcol) Preparation of Solutions: • 1. […]
Test results. […] In this model any color is determined with lightness (L-Lightness) and two chromatic components: channel a—colors from dark green through gray to purple, channel b—colors from blue through gray to yellow. […]

[3] = concentration of 0.01%; vegetable oils subjected to heating; cited from earlier work

| Structure (SMILES) | Antioxidant activity (AOA) [1] [mol-eq/l] | Antioxidant activity, AOA in relation to vitamin C (higher than vitamin C) [1] [%] | difference in FtCl300 to barium titanate [2] | antioxidant effect [3] |
| --- | --- | --- | --- | --- |
| O.O.O.O.O=C([O-])C(O)C(O)C(=O)[O-].[K+].[Na+] (stereo not shown) [seignette salt, potassium sodium tartrate KNaC4H4O6·4H2O] | 0.00013 | 13.7 | 0.19 | – |
| O=C([O-])C(O)C(O)C(=O)[O-].[Na+].[Na+] (stereo not shown) [sodium tartrate] | – | – | – | marked antioxidant effect |
